Our source for the IC50 values is ChEMBL document CHEMBL6127140, “Bicyclic Ureas as JAK2 Inhibitors for Treating Hematological Cancer” (ACS Med Chem Lett, 2024).

A short description of this experiment: Binding affinity to C-terminal his-Avi-tagged human JAK2 JH-2 domain (536 to 812 residues) W659A/W777A/F794H mutant expressed in baculovirus expression system incubated for 1 hr in presence of JAK2 JH2 tracer and ATP by Lanthascreen assay. A general note: In TR-FRET formats the signal depends on donor and acceptor labels being close together.

Consider `COC(=O)N[C@@H]1CC[C@@H](n2c(=O)n(C)c3cnc(Nc4cccc(-c5ccc(OC)nc5)n4)cc32)C1`, for which the IC50 is ≤ 10 nM.
The figure for `COC(=O)N[C@@H]1CC[C@@H](n2c(=O)n(C)c3cnc(Nc4cccc(-c5ccc6[nH]nc(C)c6c5)n4)cc32)C1` is ≤ 10 nM.
With `COC(=O)N[C@@H]1CC[C@@H](n2c(=O)n(C)c3cnc(Nc4ccnc(N5CCCCC5)n4)cc32)C1`, the 50% inhibitory concentration (IC50) was ≤ 10 nM.
In the case of `COC(=O)N[C@@H]1CC[C@@H](n2c(=O)n(C)c3cnc(Nc4cc(C)nc(N5CCC(F)(F)C5)n4)cc32)C1`, the IC50 is ≤ 10 nM.
Take `COC(=O)N[C@@H]1CC[C@@H](n2c(=O)n(C)c3cnc(Nc4ccc(F)c(-c5ccc(C6CC6)cc5)n4)cc32)C1`: the IC50 was ≤ 10 nM.
The figure for `COC(=O)N[C@@H]1CC[C@@H](n2c(=O)n(C)c3cnc(Nc4cccc(-c5ccc6c(c5)OCCO6)n4)cc32)C1` is ≤ 10 nM.

Broadly, the IC50 is the point on the concentration scale where inhibition reaches its midpoint.
